Legend:
[1] = system: patients without positive bacterial cultures localized to the prostatic fluid; experiment: Example II: double blind placebo-controlled study using 30 patients; format: in vivo
Protocol: A double blind study using 30 patients without positive bacterial cultures localized to the prostatic fluid are enrolled in a double blind study. Seventeen of the patients receive a composition comprised of quercetin in amount of 500 milligrams, bromelin in an amount of 10 milligrams, and papain in an amount of 10 milligrams as the active ingredients thereof. After a randomized study is completed, an additional fifteen patients are treated in an open label study with only the […]. […] The mean symptom score improves from 21.0 to 13.1 in the group receiving quercetin, but from 20.2 to 18.8 in the placebo group. This represents an improvement of 35%. In those patients which receive only the quercetin, without the papain and bromelin, with obtainable secretions, the white blood cell count in the decreases from 16.8 to 5.3, versus a decrease from 13.1 to 8.3 in the placebo patients.

[2] = system: chronic interstitial cystitis syndromes; settings: quercetin alone; cited from earlier work
[3] = Tests of bioavailability of quercetin alone; format: in vivo; settings: transmural intestinal absorption relatively low

bioavailability [3]: does not have a high bioavailability
Compound: O=c1c(O)c(-c2ccc(O)c(O)c2)oc2cc(O)cc(O)c12 [quercetin]
mean symptom score, after treatment ([1]; end value of the group): 13.1 | improvement of mean symptom score ([1]; human, in vivo): 35% | white blood cell count in secretions, after treatment ([1]; patients with obtainable secretions, end value): 5.3 | white blood cell count in secretions, before treatment ([1]; patients with obtainable secretions, start value): 16.8 | mean symptom score, before treatment ([1]; start value of the group): 21.0 | symptomatic response of patients [2]: significant

Source: US20010051191A1, “Composition and method for treating non-bacterial cystitis” (priority 2000, published 2001)
